Laboratory results taken from US9895349B2, “N-phenyl-carboxamide derivatives and the use thereof as medicaments for the treatment of hepatitis B” (priority 2013, dated 2018).

How the values were obtained:
HepG2 cells = experiment: Cytotoxicity in HepG2 cells, Resazurin assay; settings: read-out: HepG2 4 days CC50, 4 days incubation, Resazurin viability
HBV [1] = experiment: Anti-HBV activity, HepG2.117 inducibly HBV producing cell line (Tet-off), intracellular HBV DNA by realtime PCR; type: cell-based, Hepatitis B virus (HBV); settings: HepG2.117 cells, 3 days of treatment
HBV [2] = experiment: Anti-HBV activity, HepG2.2.15 stable transfected cell line, HBV DNA from secreted virions by realtime PCR; type: cell-based, Hepatitis B virus (HBV); settings: HepG2.2.15 cells, 6 days of treatment
in vitro = settings: human

Compound | CC50 (HepG2 cells) | EC50 (HBV [1]) | EC50 (HBV [2]) | EC50 (HBV [1]; Hepatitis B virus, HepG2.117, 72 h) | CC50 at 4 days (in vitro) | EC50 (HBV [2]; Hepatitis B virus, HepG2.2.15, 144 h)
Cc1cc(NC(=O)C2CCN(S(=O)(=O)C3CCCCC3O)C2)ccc1F (mixture of isomers) [Compound 16] | > 25 µM | 2.5 µM | 3.5 µM |  |  | 
Cc1cc(NC(=O)C2CCN(S(=O)(=O)C(C)CC(C)C)C2)ccc1F (mixture of isomers) [Compound 17] | > 25 µM | 5.9 µM | 5.9 µM |  |  | 
COCC(C)S(=O)(=O)N1CCC(C(=O)Nc2ccc(F)c(C)c2)C1 (mixture of isomers) [Compound 18] | > 25 µM | 5.3 µM | 5.8 µM |  |  | 
Cc1cc(NC(=O)C2(C)CCN(S(=O)(=O)CC(C)C)C2)ccc1F (racemic) [Compound 29a, N-(4-fluoro-3-methyl-phenyl)-1-isobutylsulfonyl-3-methyl-pyrrolidine-3-carboxamide] | > 25 µM | > 25 µM | > 25 µM |  |  | 
Cc1cc(NC(=O)C2(C)CCN(S(=O)(=O)CC(C)C)C2)ccc1F (racemic) [Compound 29b, N-(4-fluoro-3-methyl-phenyl)-1-isobutylsulfonyl-3-methyl-pyrrolidine-3-carboxamide] | > 25 µM | 6.9 µM | 18.3 µM |  |  | 
Cc1cc(NC(=O)[C@H]2C[C@@H]3CC[C@H]2N3S(=O)(=O)CC(C)C)ccc1F (racemic) [Compound 30, N-(4-fluoro-3-methyl-phenyl)-7-isobutylsulfonyl-7-azabicyclo[2.2.1]heptane-3-carboxamide] |  |  |  | 4.7 µM | > 25 µM | 0.61 µM
Cc1cc(NC(=O)C2(F)CCN(S(=O)(=O)NC(C)C)C2)ccc1F (racemic) [Compound 35b, 3-fluoro-N-(4-fluoro-3-methyl-phenyl)-1-(isopropylsulfamoyl)pyrrolidine-3-carboxamide] | > 25 µM | > 5 µM | > 5 µM |  |  | 
Cc1cc(NC(=O)C2CN(S(=O)(=O)NC(C)C)C3CC23)ccc1F (single isomer, unassigned) [Compound 36b, N-(4-fluoro-3-methyl-phenyl)-2-(isopropylsulfamoyl)-2-azabicyclo[3.1.0]hexane-4-carboxamide] | > 25 µM | 0.38 µM | 0.46 µM |  |  | 
Cc1cc(NC(=O)C2(F)CCN(S(=O)(=O)N[C@H]3CCOC3)C2)ccc1F (single isomer, unassigned) [Compound 42b] | > 25 µM | 1.69 µM | 3.25 µM |  |  | 
Cc1cc(NC(=O)[C@H]2CCN(S(C)(=O)=O)C2)ccc1F [Compound 4] | > 25 µM | 10.7 µM | 16.4 µM |  |  | 
Cc1cc(NC(=O)[C@H]2CCN(S(=O)(=O)C3CC3)C2)ccc1F [Compound 5] | > 25 µM | 2 µM | 9.1 µM |  |  | 
Cc1cc(NC(=O)[C@H]2CCN(S(=O)(=O)C(C)C)C2)ccc1F [Compound 7] | > 25 µM | 4.7 µM | 13.5 µM |  |  | 
COCCS(=O)(=O)N1CC[C@H](C(=O)Nc2ccc(F)c(C)c2)C1 [Compound 14] | > 25 µM | 1.5 µM | 1.9 µM |  |  | 
CCC(CC)S(=O)(=O)N1CC[C@H](C(=O)Nc2ccc(F)c(C)c2)C1 [Compound 19] | > 25 µM | 2.9 µM | 8.4 µM |  |  | 
Cc1cc(NC(=O)[C@H]2CCN(C(=O)OC3COC3)C2)ccc1F [Compound 20] | > 25 µM | 4 µM | 16.1 µM |  |  | 
Cc1cc(NC(=O)[C@H]2CCN(C(=O)OC(C)C)C2)ccc1F [Compound 21] | > 25 µM | 2.7 µM | 5.4 µM |  |  | 
COC(=O)N1CC[C@H](C(=O)Nc2ccc(F)c(C)c2)C1 [Compound 22] | > 25 µM | 8.6 µM | 13.6 µM |  |  | 
Cc1cc(NC(=O)[C@H]2CCN(S(=O)(=O)C3CCCCC3)C2)ccc1F [Compound 23] | > 25 µM | 1.4 µM | 0.96 µM |  |  | 
